Results as given in patent US5089516A, “1-phenyl-3,5-pyrazolidinedione hydroxystyrene compounds which have tyrosine kinase inhibiting activity” (Kanegafuchi Kagaku Kogyo Kabushiki Kaisha, priority 1987, dated 1992).
Converted amounts (≈) assume the structure as drawn.

Columns and labels:
[1] = target: T1, reverse transcriptase derived from Moloney-Murine Leukemia Virus (M-MLV) (Moloney murine leukemia virus, UniProt P03355); assay: Inhibiting activity against reverse transcriptase derived from M-MLV; assay type: biochemical; conditions: read-out: Inhibition rate (reverse transcriptase derived from M-MLV); for inhibition at 10 µM: 10 μM in the reaction mixture; for inhibition at 1 µM: 1 μM in the reaction mixture
T1 construct: reverse transcriptase derived from Moloney-Murine Leukemia Virus; purchased Pharmacia K. K
Protocol: There was found the following point by using reverse transcriptase derived from Moloney-Murine Leukemia Virus (hereinafter referred to as "M-MLV").
The compound of the present invention was dissolved in DMSO to give a 100 mM solution thereof. Then, the solution was diluted with distilled water containing DMSO to give a solution of the test compound having a defined concentration. A mixed ratio of DMSO and distilled water was adjusted so that the concentration of DMSO at this time is 10% by volume and a final concentration of DMSO at the beginning of a reaction is 1% by volume.
The thus prepared solution of the test compound was mixed with a solution containing 50 mM of Tris--HCl buffer (pH 8.3), 8 mM of MgCl2, 30 mM of NaCl, 50 mM of dithiothreitol (made by Wako Pure Chemical Industries Ltd.), 0.2 mM of thymidine-5'-triphosphate (made by Pharmacia K. K.) and 6 U/ml of reverse transciptase derived from M-MLV (made by Pharmacia K. K.), and preincubated at 37° C. for 30 minutes. After there was added thereto 10 μg/ml of polyadenylic acid (made by PL Biochemicals Co., Ltd.), 0.01 U/ml of oligodeoxy thymidylic acid (made by Pharmacia K. K.) and 10 μCi/ml of [methyl-^3 H] thymidine-5'-triphosphate (made by Amersham Japan Co., Ltd., 47 Ci/mmol) to give a reaction mixture, the mixture was further incubated at 37° C. for 30 minutes, followed by cooling with ice to stop the reaction.
The radioactivity incorporated into deoxyribonucleic acids was measured according to the method of Linteril et al (Science 170, 447 to 449 (1967)). A defined volume of the reaction mixture was soaked into DE-81 filter paper (made by Whatman Ltd.), the filter paper was washed with 5% by weight of Na2 HPO4 solution for three times, and with distilled water and ethanol successively, and then dried. Radioactivity contained in the filter paper was measured by liquid scintillation counter to give the each radioactivity of the test solution groups.
On the other hand, the same procedure as above was carried out using DMSO-distilled water without the test compound instead of using the test solution, to give the value of radioactivity of a control group.
Reverse transcriptase derived from M-MLV inhibition rate (%) was calculated by the following equation. [formula]

[2] = test system: passive cutaneous anaphylaxis (PCA) reaction; assay: Inhibitory activity against homologous PCA reaction in rats; assay type: in vivo, male Wistar rats; conditions: Rattus norvegicus, 100 mg/kg, oral, 1 hour before antigen, read-out: Inhibition rate (PCA reaction)
Protocol: (1) Inhibitory activity against homologous PCA reaction in rats
Antiserum was prepared according to I. Mota [Immunology, 7, 681(1964)]and the PCA reaction was conducted according to Maruyama et al. [Folia Pharmacologica Japonica, 74, 179(1978}].
An ovalbumin solution dissolved in physiological saline (2 mg/ml) was injected intramuscularly into both thighs of male Wistar rats weighing 200 to 260 g in a volume of 0.5 ml/100 g body weight, and pertussis vaccine (Bordetella pertussis, 2×10^10 /ml/ Chiba Serum Institute) was intraperitoneally administered at 1 ml/rat. Twelve days after sensitization, blood was taken from posterior aorta under ether anesthesia and serum was separated and stored at -80° C.
In each group, 4 male Wistar rats weighing 180 to 210 g were used. Back of the rats was shaved and reach 0.05 ml of antiserum diluted 32 times with physiological saline was injected intradermally at four sites on the back. After 48 hours, 1 ml of a mixture of ovalbumin (2 mg/ml) as an antigen and Evans blue (10 mg/ml) in the volume ratio of 1 : 1, which was dissolved in physiological saline was injected intravenously into the tail. Thirty minutes later, the rats were bled to death under ether anesthesia and the back skin of the rats was removed. The blue-dyed area formed by pigment exudation was measured and an inhibition rate (%) was calculated as compared with control according to the following equation. [formula]
A test compound suspended in a 2.5 % aqueous solution of gum arabic containing 0.2 % Tween 80 was administered orally in a volume of 0.5 m:/100 g body weight 1 hour before the injection of antigen. To the control group, only the vehicle was administered. Tranilast which was a positive control compound was administered orally 30 minutes before the injection of antigen.

[3] = test system: Nycobacterium smegmatis ATCC 607; assay: Antibacterial activity (MIC) against acid-fast bacteria; assay type: cell-based; conditions: 37° C., 40 to 42 hours
Protocol: As for acid-fast bacteria, after cultured in glycerol broth medium, there was prepared a bacterial suspension for inoculation containing about 10^6 of the bacteria per 1 ml of the medium. On the other hand, there were prepared some glycerol Czapek agar plating media with adding the test compounds, and thereto the bacterial suspension for inoculation was streaked.

[4] = test system: antigen-induced airway constriction; assay: Inhibitory activity against antigen-induced airway constriction in actively sensitized guinea pigs; assay type: in vivo; conditions: Cavia porcellus, read-out: Inhibition rate (airway constriction)
Protocol: (3) Inhibitory activity against antigen-induced airway constriction in actively sensitized guinea pigs
That is, the sensitized guinea pigs (5 guinea pigs/group) were provided with artificial respiration by inserting a tracheal cannula under urethane anesthesia (1.5 g/kg body weight, intraperitoneal administration), and then, gallamine at 1 mg/kg body weight was injected intravenously to stop spontaneous respiration of the guinea pigs. Inhalation of 0.5% aqueous solution of ovalbumin was conducted using a nebulizer for 1 minute to increase antigen-induced airway constriction, at the same time, airway pressure was recorded through a transducer. Test compound was administered into jugular vein (i.v.) of the guinea pig 3 minutes before the antigen inhalation or administered orally (p.o.) 2 hours before the antigen inhalation. As a positive control compound, theophylline which was a drug for anti-asthma was used. The effect of the compound was estimated by calculating the maximum value of airway constriction (%) in comparison with the control group, according to the following equation. [formula]

[5] = test system: Staphylococcus aureus IFO 12732; assay: Antibacterial activity (MIC) against Staphylococcus aureus IFO 12732; assay type: cell-based; conditions: IFO12732, 37° C., 18 to 20 hours
Protocol: (§1) The antibacterial activity against Gram-positive bacteria of the compound of the present invention was measured according to a standard method of Nippon Kagaku Ryoho Gakkai [Nippon Kagaku Ryoho Gakkaishi (Journal of the Chemical therapy of Japan), 29, 76(1981)].
(§2) As for gram-positive bacteria, after cultivation in Meuller Hinton broth medium (made by Difco Co., Ltd.), there was prepared a bacterial suspension for inoculation containing about 10^6 of the bacteria per 1 ml of the Meuller Hinton broth medium. On the other hand, the test compound was added to Mueller Hinton agar medium (made by Difco Co., Ltd.) so as to give agar plate medium containing test samples which are twofold serial diluted. Then, the above-mentioned bacterial suspension for inoculation was streaked to each agar medium for about 2 cm with a looped nichrome wire (inner diameter: about 1 mm).
(§3) After that the each agar plate medium was cultured at 37° C. for 18 to 20 hours, the growth of the test bacteria was determined.

[6] = test system: Micrococcus luteus IFO 13867; assay: Antibacterial activity (MIC) against Micrococcus luteus IFO 13867; assay type: cell-based; conditions: IFO13867, 37° C., 18 to 20 hours
Protocol: as §1, §2, §3

[7] = test system: Bacillus subtilis IFO 3134; assay: Antibacterial activity (MIC) against Bacillus subtilis IFO 3134; assay type: cell-based; conditions: IFO3134, 37° C., 18 to 20 hours
Protocol: as §1, §2, §3

[8] = iv, 3 minutes before antigen inhalation

Row | SMILES | inhibition at 10 µM [1] [%] | inhibition in vivo at 100 mg/kg [2] [%] | MIC [3] [µg/mL] | inhibition in vivo at 1 mg/kg [4, 8] [%] | inhibition at 1 µM [1] [%] | further results
1 | CCCCOc1cc(C=C2SC(=S)NC2=O)cc(Cc2ccccc2)c1O [Compound 10] | 61 | – | – | – | – | –
2 | CC(C)c1cc(C=C2SC(NCc3ccc(F)cc3)=NC2=O)cc(C(C)C)c1O [Compound 35] | – | 43 | 15 (≈ 36.4 µM) | – | – | –
3 | O=C1NC(=S)SC1=Cc1cc(O)c(O)c(CSc2ccccc2)c1 [Compound 7] | – | – | – | 25 | 98 | –
4 | CCCCOc1cc(C=C2SC(=S)NC2=O)cc(CSc2ccccc2)c1O [Compound 9] | – | – | – | 20 | 73 | –
5 | CC(C)c1cc(C=C2SC(NCc3ccccc3)=NC2=O)cc(C(C)C)c1O [Compound 33] | – | 50 | ≤ 15 | – | – | inhibition in vivo at 2 mg/kg ([4]; iv, 2 mg/kg, 3 minutes before antigen inhalation): 26%
6 | O=C1NC(=S)SC1=Cc1cc(CSc2ccccc2)c(O)c(OCc2ccccc2)c1 [Compound 8] | – | – | – | 43 | 98 | –
7 | O=C1NN(c2ccccc2)C(=O)C1=Cc1cc(Cc2ccccc2)c(O)c(Cc2ccccc2)c1 [Compound 20] | 97 | – | – | – | – | MIC [5]: 100 µg/mL (≈ 217 µM); MIC [6]: ≤ 50 µg/mL; MIC [7]: 50 µg/mL (≈ 109 µM)
8 | CC(C)c1cc(C=C2SC(NCc3ccc(S(N)(=O)=O)cc3)=NC2=O)cc(C(C)C)c1O [Compound 41] | – | 25 | 25 (≈ 52.8 µM) | – | – | MIC [5]: 50 µg/mL (≈ 106 µM); MIC [7]: 25 µg/mL (≈ 52.8 µM)
9 | O=C1N=C(NCc2cccs2)SC1=Cc1cc(CSc2ccccc2)c(O)c(OCc2ccccc2)c1 [Compound 31] | 61 | – | ≤ 6 | – | – | –
10 | CC(C)c1cc(C=C2SC(NCc3ccc(Cl)c(Cl)c3)=NC2=O)cc(C(C)C)c1O [Compound 37] | – | 21 | – | 21 | – | –
11 | Cc1ccc(CNC2=NC(=O)C(=Cc3cc(C(C)C)c(O)c(C(C)C)c3)S2)cc1 [Compound 39] | – | 65 | – | 59 | – | –
12 | O=C1NC(=S)SC1=Cc1cc(Cc2ccccc2)c(O)c(Cc2ccccc2)c1 [Compound 2] | – | – | – | – | 95 | MIC [5]: 12 µg/mL (≈ 28.7 µM); MIC [6]: ≤ 6 µg/mL; MIC [7]: ≤ 6 µg/mL
13 | CC(C)c1cc(C=C2SC(NCc3ccc(N)cc3)=NC2=O)cc(C(C)C)c1O [Compound 42] | 50 | – | ≤ 15 | – | – | inhibition in vivo at 5 mg/kg ([4]; iv, 5 mg/kg, 3 minutes before antigen inhalation): 33%
14 | O=C1Nc2ccccc2C1=Cc1cc(O)c(O)c(CSc2ccccc2)c1 [Compound 11] | – | – | – | 52 | 94 | MIC [5]: 25 µg/mL (≈ 66.6 µM); MIC [6]: 12 µg/mL (≈ 32 µM); inhibition in vivo at 30 mg/kg ([4]; po, 30 mg/kg, 2 hours before antigen inhalation): 26%; MIC [7]: ≤ 6 µg/mL
15 | O=C1N=C(NCc2ccccc2)SC1=Cc1cc(Cc2ccccc2)c(O)c(Cc2ccccc2)c1 [Compound 26] | 76 | – | – | 68 | – | –
16 | O=C1NN(c2ccccc2)C(=O)C1=Cc1cc(O)c(O)c(Cc2ccccc2)c1 [Compound 24] | – | – | – | – | 91 | –
